In the Kinase Knowledgebase extract (Sharma et al. 2016):
pIC50: −log10 of the molar value.

Molecular target: PIK3CA (human) (UniProt P42336)
Test: Cell-Based Assay
Conditions: bt474

Chain of PIK3CA (human) (P42336 whole entry, looked up): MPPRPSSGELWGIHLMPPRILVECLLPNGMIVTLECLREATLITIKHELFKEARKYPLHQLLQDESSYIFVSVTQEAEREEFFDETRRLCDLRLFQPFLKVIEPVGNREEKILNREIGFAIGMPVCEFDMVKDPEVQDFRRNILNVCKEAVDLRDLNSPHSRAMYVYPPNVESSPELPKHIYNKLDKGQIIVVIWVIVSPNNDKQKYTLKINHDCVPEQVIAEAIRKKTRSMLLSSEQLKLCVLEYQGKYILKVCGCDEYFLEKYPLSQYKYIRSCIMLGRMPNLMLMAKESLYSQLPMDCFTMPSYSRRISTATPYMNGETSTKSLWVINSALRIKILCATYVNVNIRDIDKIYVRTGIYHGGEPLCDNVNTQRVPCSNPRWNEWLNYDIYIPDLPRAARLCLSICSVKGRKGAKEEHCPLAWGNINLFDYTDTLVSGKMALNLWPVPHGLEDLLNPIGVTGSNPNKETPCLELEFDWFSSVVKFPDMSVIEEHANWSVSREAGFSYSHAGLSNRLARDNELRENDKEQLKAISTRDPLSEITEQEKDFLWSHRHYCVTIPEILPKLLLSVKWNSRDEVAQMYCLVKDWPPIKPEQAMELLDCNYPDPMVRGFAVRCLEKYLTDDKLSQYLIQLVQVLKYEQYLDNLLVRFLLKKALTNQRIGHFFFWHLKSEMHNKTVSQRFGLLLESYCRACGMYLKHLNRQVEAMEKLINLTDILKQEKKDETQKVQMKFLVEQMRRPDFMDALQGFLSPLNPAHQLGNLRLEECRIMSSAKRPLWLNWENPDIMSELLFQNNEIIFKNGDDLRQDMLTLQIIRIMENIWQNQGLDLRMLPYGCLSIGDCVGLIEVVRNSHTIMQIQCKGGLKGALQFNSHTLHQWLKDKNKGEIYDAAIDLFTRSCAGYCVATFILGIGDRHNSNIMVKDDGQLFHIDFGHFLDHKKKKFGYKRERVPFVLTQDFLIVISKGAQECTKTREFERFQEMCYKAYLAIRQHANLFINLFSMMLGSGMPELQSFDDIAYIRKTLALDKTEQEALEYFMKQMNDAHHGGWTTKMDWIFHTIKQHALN

| pIC50 | SMILES |
| --- | --- |
| < 4.63 | Cn1c(=O)n([C@H]2CCCOC2)c2c3cc(-c4ccc(OCCCN5CCCCC5)nc4)c(F)cc3ncc21 |
| < 4.52 | Cn1c(=O)n([C@H]2CCCOC2)c2c3cc(-c4ccc(OCCCN5CCCC5)nc4)c(F)cc3ncc21 |
| < 4.96 | Cn1c(=O)n([C@H]2CCCOC2)c2c3cc(-c4ccc(OCCCN5CCCCC5)nc4)ccc3ncc21 |
| < 4.60 | O=c1[nH]c2cnc3ccc(-c4ccc(OCCCN5CCCCC5)nc4)cc3c2n1C1CCOCC1 |
| < 4.53 | CO[C@H]1C[C@@H](n2c(=O)n(C)c3cnc4cc(F)c(-c5ccc(OCCCN6CCCC6)nc5)cc4c32)C1 |
| < 4.58 | Cn1c(=O)n(C2COC2)c2c3cc(-c4ccc(OCCCN5CCCCC5)nc4)ccc3ncc21 |
| 5.00 | CN(C)CCCOc1ccc(-c2cc3c(cc2F)ncc2c3n([C@@H]3CCCOC3)c(=O)n2C)cn1 |
| < 4.52 | CO[C@H]1C[C@@H](n2c(=O)n(C)c3cnc4cc(F)c(-c5ccc(OCCCN(C)C)nc5)cc4c32)C1 |
| < 4.69 | CN(C)CCCOc1ccc(-c2cc3c(cc2F)ncc2c3n([C@H]3CCCOC3)c(=O)n2C)cn1 |
| < 4.84 | Cn1c(=O)n(C2CCC2)c2c3cc(-c4ccc(OCCCN5CCCCC5)nc4)ccc3ncc21 |
| < 4.79 | Cn1c(=O)n([C@H]2CCCOC2)c2c3cc(-c4ccc(OCCCN5CCCC5)nc4F)ccc3ncc21 |
| < 4.55 | CO[C@H]1C[C@@H](n2c(=O)n(C)c3cnc4cc(F)c(-c5ccc(OCCCN(C)C)nc5F)cc4c32)C1 |
| < 4.78 | Cn1c(=O)n(C2CCOCC2)c2c3cc(-c4ccc(OCCCN5CCCCC5)nc4)c(F)cc3ncc21 |
| 5.16 | CN(C)CCCOc1ccc(-c2ccc3ncc4c(c3c2)n(C2COC2)c(=O)n4C)cn1 |
| < 5.02 | Cn1c(=O)n(C2CCC2)c2c3cc(-c4ccc(OCCCN5CCCC5)nc4)ccc3ncc21 |
| 6.30 | Cn1c(=O)n([C@H]2CCCOC2)c2c3cc(-c4ccc(OCCCN5CCC5)nc4)ccc3ncc21 |
| 5.97 | CN(C)CCCOc1ccc(-c2ccc3ncc4c(c3c2)n([C@H]2C[C@@H](O)C2)c(=O)n4C)cn1 |
| < 4.54 | CN(C)CCCOc1ccc(-c2cc3c(cc2F)ncc2c3n(C3COC3)c(=O)n2C)cn1 |
| < 5.03 | CN(C)CCCOc1ccc(-c2cc3c(cc2F)ncc2c3n([C@H]3CCCOC3)c(=O)n2C)c(F)n1 |
